From patent US5179089A, “Isoquinoline compounds, compositions and use” (Chinoin Gyogyszer es Vegyeszeti Termekek Gyara Rt., priority 1990, dated 1993) come the findings set out here.

Test [1] has as its system histamine-induced constriction of isolated tracheal smooth muscle of guinea pig. The test is described as follows: Inhibition of the histamine-induced constriction of isolated tracheal smooth muscle of guinea pig. The note with it: isolated guinea pig trachea; for IC50: Cavia porcellus, 0.25 h, read-out: Inhibition of the histamine-induced constriction of isolated tracheal smooth muscle of guinea pig pd'2 (converted). On the procedure:
I Study on the Effects Against Spasmogenic Mediators [modified method of J. C. […] The investigation on isolated organs were carried out as follows. OHF Lt/R9 guinea pigs of both sexes weighing 300 to 400 g each were anaesthetized by pentobarbital. Their trachea was removed and sectioned in the opposite side to the site of smooth muscle in longitudinal direction. Subsequently, a strip-like preparation was obtained by […] cutting. […] A rest load of 0.5 g was used. Several washings were carried out during the incubation period of 30 minutes. The change in the tension of the tracheal smooth muscle was followed by using an isometric Grass FT-03 type tensiometer sensor device. A washing was made following the cumulative dose series of the given mediator (e.g. histamine). After reaching the base line, by 15 minutes after administration of the given concentration of the inhibitory (antiasthmatic) substance to be tested, the next cumulative dose series of the mediator was administered. In the case of an inhibitory action, the strength of effect, following the second dose series of the mediator, was […] in comparison to that of the first (control) series. For characterization of strength of the competitive antagonistic effect the pA2 value was determined according to the method of […] A pd'2 value was calculated [J. M. Van Rossum: Arch. Int.

Test [2] relates to carrageenin-induced rat paw edema. As to the kind of experiment: Carrageenin-induced rat paw edema test. The class given is in vivo, rat (female CFY). The note with it: Rattus norvegicus, po, 50 mg/kg (p.o.), read-out: Percentage of the protective effect. On the procedure:
Proc. Soc. Exp. Med. 111, 544 (1962)]. Female CFY rats weighing 100 to 120 g each were used after starvation for 24 hours. The inflammation was induced by injecting 0.1 ml of 1% carrageenin solution into the right hind paw plant. The severity of inflammation was determined by using an Ugo-Basile type plethysmometer. The measurement was carried out before and 1.5, 3 and 4.5 hours after induction of the inflammation. The animals were orally treated with the substance to be tested 1 hour before administration of carrageenin. The effect was expressed as percentage inhibition related to the control group.

Test [3] deals with dextran-induced rat paw edema. The test is described as follows: Dextran-induced rat paw edema test. The note with it: 50 mg/kg (p.o.). The format is in vivo. On the procedure:
3) Dextran-induced rat paw edema test The method of S. Gourvaisier and R. Ducrot [Arch. Int. Pharmacodyn. Ther. 102, 33 (1955)] was employed. The method described for the carrageenin edema test was followed, except that the measurements were carried out 30, 60, 90, 120 and 180 minutes after induction of the inflammation.

Structures can show the parent of a compound that is named as a salt. Where two headings read alike, the source gives them in different places.

`CCOc1cc2c(cc1OCC)C(=C(C#N)SCC(O)CNC(C)(C)C)NCC2` (centres unmarked) [Example 9, 2-(6,7-diethoxy-1,2,3,4-tetrahydro-1-isoquinolinylidene)-2-(3-tert-butylamino-2-hydroxypropyl)mercaptoacetonitrile hydrochloride hemihydrate]: the IC50 in test [1] was 41.7 µM.

Consider `CCOc1cc2c(cc1OCC)C(=C(C#N)SCC(O)CNC1CCCCC1)NCC2` (centres unmarked) [Example 11, 2-(6,7-diethoxy-1,2,3,4-tetrahydro-1-isoquinolinylidene)-2-(3-cyclohexylamino-2-hydroxypropyl)mercaptoacetonitrile hydrochloride], for which, in test [1], the IC50 was 35.5 µM.

Take `CCOc1cc2c(cc1OCC)C(=C(C#N)SCC(O)CN1CCOCC1)NCC2.Cl` (single isomer, unassigned; (+)) [Example 28, (+)-2-(6,7-diethoxy-1,2,3,4-tetrahydro-1-isoquinolinylidene)-2-[2-hydroxy-3-(4-morpholinyl)propyl]mercaptoacetonitrile hydrochloride]: in test [1] (15 min), the “Inhibition of the histamine-induced constriction of isolated tracheal smooth muscle of guinea pig pd'2” value is reported as 6.36.

For `COc1cc2c(cc1OC)C(=C(C#N)SCC(O)CN1CCN(C)CC1)NCC2` (centres unmarked) [Example 21, 2-(6,7-dimethoxy-1,2,3,4-tetrahydro-1-isoquinolinylidene)-2-[2-hydroxy-3-(4-methyl-1-piperazinyl)propyl]mercaptoacetonitrile hydrochloride], in test [1], the IC50 is 2.88 µM.

As for `CCOc1cc2c(cc1OCC)C(=C(C#N)SCC(O)CN(CC)CC)NCC2` (centres unmarked) [Example 2, 2-(6,7-diethoxy-1,2,3,4-tetrahydro-1-isoquinolinylidene)-2-(3-diethylamino-2-hydroxypropyl)-mercaptoacetonitrile hydrochloride], the IC50 in test [1] was 12.3 µM. The change in vivo at 50 mg/kg is -22.9% in test [2] (1.5 hours), -20.6% in test [2] (3 hours) and -11.3% in test [2] (4.5 hours). Besides, the Percentage of inhibition in test [3] (30 minutes) is -24%; in test [3] (60 minutes), -21%; in test [3] (90 minutes) it was -25%; in test [3] (120 minutes), -23%; in test [3] (180 minutes), -17%.

Consider `CCOc1cc2c(cc1OCC)C(=C(C#N)SCC(O)CN1CCN(C)CC1)NCC2` (centres unmarked) [Example 22, 2-(6,7-diethoxy-1,2,3,4-tetrahydro-1-isoquinolinylidene)-2-[2-hydroxy-3-(4-methyl-piperazinyl)propyl]mercaptoacetonitrile hydrochloride], for which, in test [1], the IC50 is 7.24 µM.

Take `CCOc1cc2c(cc1OCC)C(=C(C#N)SCC(O)CN1CCCC1)NCC2` (centres unmarked) [Example 13, 2-(6,7-diethoxy-1,2,3,4-tetrahydro-1-isoquinolinylidene)-2-[2-hydroxy-3-(1-pyrrolidinyl)propyl]mercaptoacetonitrile hydrochloride]: the IC50 in test [1] is 12.6 µM. Also, the figures for the change in vivo at 50 mg/kg in test [2] (1.5 hours), in test [2] (3 hours) and in test [2] (4.5 hours) were -31.8%, -21.8% and -9.05%, respectively.

For the compound `COc1cc2c(cc1OC)C(=C(C#N)SCC(O)CN1CCCCCC1)NCC2` (centres unmarked) [Example 19, 2-(6,7-dimethoxy-1,2,3,4-tetrahydro-1-isoquinolinylidene)-2-(3-hexamethylenimino-2-hydroxypropyl)mercaptoacetonitrile], in test [1], the IC50 is 97.7 µM. For the same compound, the values for the change in vivo at 50 mg/kg in test [2] (1.5 hours), in test [2] (3 hours) and in test [2] (4.5 hours) were -29%, -24.2% and -19.5%, respectively. The Percentage of inhibition in test [3] (30 minutes) is listed as -28.2%; in test [3] (60 minutes), -26.6%; in test [3] (90 minutes), -27.3%; in test [3] (120 minutes), -27.8%; in test [3] (180 minutes), -22.8%.

Take `COc1cc2c(cc1OC)C(=C(C#N)SCC(O)CN1CCCCC1)NCC2` (centres unmarked) [Example 15, 2-(6,7-dimethoxy-1,2,3,4,-tetrahydro-1-isoquinolinylidene)-2-[2-hydroxy-3-(1-piperidinyl)propil]mercaptoacetonitrile hydrochloride]: the IC50 in test [1] is 34.7 µM.

For `CCOc1cc2c(cc1OCC)C(=C(C#N)SCC(O)CN(CCO)CCO)NCC2` (centres unmarked) [Example 5, 2-(6,7-diethoxy-1,2,3,4-tetrahydro-1-isoquinolinylidene)-2-[3-(N,N-bis-2-hydroxyethyl)-amino-2-hydroxypropyl]mercapto-acetonitrile hydrochloride], the IC50 in test [1] is 45.7 µM. Moreover, the change in vivo at 50 mg/kg in test [2] (1.5 hours) was -21%; in test [2] (3 hours), -16.5%; in test [2] (4.5 hours) it was -10%.

Consider `N#CC(SCC(O)CN1CCOCC1)=C1NCCc2ccccc21` (centres unmarked) [Example 16, 2-(1,2,3,4-tetrahydro-1-isoquinolinylidene)-2-[2-hydroxy-3-(4-morpholinyl)propyl]mercaptoacetonitrile hydrochloride hemihydrate], for which the IC50 in test [1] was 32.4 µM. The change in vivo at 50 mg/kg is -29.3% in test [2] (1.5 hours), -22.2% in test [2] (3 hours) and -20% in test [2] (4.5 hours).

Regarding `COc1cc2c(cc1OC)C(=C(C#N)SCC(O)CNC(C)C)NCC2` (centres unmarked) [Example 6, 2-(6,7-dimethoxy-1,2,3,4-tetrahydro-1-isoquinolinylidene)-2-(2-hydroxy-3-isopropylaminopropyl)mercaptoacetonitrile hydrochloride hemihydrate], the IC50 in test [1] was 0.204 µM. The change in vivo at 50 mg/kg is 0% in test [2] (1.5 hours), -17% in test [2] (3 hours) and 0% in test [2] (4.5 hours).

As for `COc1cc2c(cc1OC)C(=C(C#N)SCC(CN1CCOCC1)OC(C)=O)NCC2` (centres unmarked) [Example 23, 2-(6,7-dimethoxy-1,2,3,4-tetrahydro-1-isoquinolinylidene)-2-[2-acetoxy-3-(4-morpholinyl)propyl]mercaptoacetonitrile hydrochloride], in test [1], the IC50 is 17.4 µM. Besides, the change in vivo at 50 mg/kg in test [2] (1.5 hours) is -33.8%; in test [2] (3 hours), -30.9%; in test [2] (4.5 hours) it was -29.5%.

`CCOc1cc2c(cc1OCC)C(=C(C#N)SCC(O)CNC(C)C)NCC2` (centres unmarked) [Example 7, 2-(6,7-diethoxy-1,2,3,4-tetrahydro-1-isoquinolinylidene)-2-(2-hydroxy-3-isopropylaminopropyl)mercaptoacetonitrile hydrochloride]: in test [1], the IC50 is 17.4 µM.

As to `COc1cc2c(cc1OC)C(=C(C#N)SCC(O)CNC(C)(C)C)NCC2` (centres unmarked) [Example 8, 2-(6,7-dimethoxy-1,2,3,4-tetrahydro-1-isoquinolinylidene)-2-(3-tert-butylamino-2-hydroxypropyl)mercaptoacetonitrile hydrochloride], the IC50 in test [1] is 13.5 µM.

As for `COc1cc2c(cc1OC)C(=C(C#N)SCC(O)CN(C)CCO)NCC2` (centres unmarked) [Example 3, 2-(6,7-dimethoxy-1,2,3,4-tetrahydro-isoquinolinylidene)-2-[3-(N-methyl-N-2-hydroxyethyl)-amino-2-hydroxypropyl]-mercapto-acetonitrile hydrochloride], the IC50 in test [1] is 26.9 µM.

In the case of `COc1cc2c(cc1OC)C(=C(C#N)SCC(O)CN(CCO)CCO)NCC2` (centres unmarked) [Example 4, 2-(6,7-dimethoxy-1,2,3,4-tetrahydro-1-isoquinolinylidene)-2-[3-(N,N-bis-2-hydroxyethyl)-amino-2-hydroxypropyl]-mercapto-acetonitrile hydrochloride dihydrate], the IC50 in test [1] was 50.1 µM. Besides, the change in vivo at 50 mg/kg in test [2] (1.5 hours) is -25%; in test [2] (3 hours) it was -26%; in test [2] (4.5 hours), -24%.

For the compound `CCOc1cc2c(cc1OCC)C(=C(C#N)SCC(O)CN1CCOCC1)NCC2` (single isomer, unassigned; (-)) [Example 27, (-)-2-(6,7-diethoxy-1,2,3,4-tetrahydro-1-isoquinolinylidene)-2-[2-hydroxy-3-(4-morpholinyl)propyl]mercaptoacetonitrile d-camphorsulfonate], the IC50 in test [1] is 0.537 µM.

Take `CCN(CC)CC(O)CSC(C#N)=C1NCCc2cc(OC)c(OC)cc21` (centres unmarked) [Example 1, 2-(6,7-dimethoxy-1,2,3,4-tetrahydro-1-isoquinolinylidene)-2-(3-diethylamino-2-hydroxypropyl)-mercaptoacetonitrile hydrochloride]: the IC50 in test [1] is 9.12 µM.
